Assay: pH measurement
Type: physicochemical
Excerpt: All measurements of pH and temperature mentioned in this specification were taken on a Hanna Instruments Ltd. device, with the model no. HI98127 (a waterproof pH and ° C./° F. probe). The measurements of pH and temperature could be taken on other generally available pH and temperature probes.

With `O=P(O)(O)O` [phosphoric acid] the pH (1 mol/L at 20° C.) was “around 1.08”.

Work on `O=C(O)CC(O)(CC(=O)O)C(=O)O` [citric acid] yielded a pH (50 g/l at 20° C.) of 1.8.
